# Entries after “also recorded” stand apart in the source; their conditions may differ.
# Test system: 14-3-3γ/Tau pS214 interaction
# Experiment: Fluorescence anisotropy 14-3-3γ titration with compound and monovalent Tau pS214 peptide
# Format: binding
# Settings: SF250μM with 14-3-3γ, 250 μM compound
# Description: FA assays in which 14-3-3γ was titrated to a constant concentration of compound (250 μM) in the presence of the distinct monovalent Tau peptide (10 nM) were performed.
# The determined stabilization factors are concentration-dependent (here 250 μM of compound) and might differ based on assay design. […] The app. α-factors of these compounds for both 14-3-3/Tau complexes were determined by 14-3-3γ titrations in the presence of varied concentrations of the particular compound (Fig. 5d and e). Both compounds reached saturation for both 14-3-3γ/Tau complexes enabling accurate determination of the α-factor. The app. α-factors of aldehydes 1 and 18 were plotted for both 14-3-3γ/Tau complexes to investigate phospho-binding site selective cooperativity (Fig. 5f and h). To do so, the stabilization factors at a given compound concentration were plotted against the compound concentration, leading to the determination of the app. α-factors. […]
# chromatography (HisTrap high performance cartridges, Cytiva). Typically two 5 mL columns were used for a 2 L culture in which the lysate was loaded on the column, washed with 10 CV wash buffer (50 mM Hepes, pH 8.0, 300 mM NaCl, 25 mM imidazole, 2 mM βME), and eluted with several fractions (2-4 CV) of elution buffer (50 mM Hepes, pH 8.0, 300 mM NaCl, 250 mM imidazole, 2 mM βME). Fractions containing the 14-3-3 protein were combined and dialyzed into 25 mM HEPES pH 8.0, 200 mM NaCl, 10 mM MgCl2, 2 mM βME, followed by dialysis into 25 mM HEPES, 100 mM NaCl, 10 mM MgCl2, 500 μM TCEP (adjusted to pH 8.0). Dialyzed protein was concentrated to ∼40 mg/mL, analyzed by Q -Tof LC/MS, and aliquots were flash -frozen for storage at −80 °C. […]
# 0.1% (v/v) Tween20, 0.1% (w/v) BSA). Dilution series were made in polystyrene low -volume 384 -well plates (Corning #4514, Black Round Bottom). Measurements were performed directly after plate preparation, using a Tecan SPARK plate reader at room temperature ( λex: 485±20 nm; λem: 535±25 nm; mirror: automatic; flashes: 30; settle time: 1 ms; gain: optimal; Z -position: calculated from well). Wells containing only fluorescein labelled peptide were used to set as G -factor calibrated from these wells. All data were analyzed using GraphPad Prism (10.0.1) and fitted with a four -parameter logistic model (4PL) to determine binding affinities (dissociation constant, KD). All data shown is background corrected for the signal without 14 -3-3ζ and the mean and standard deviation of technical duplicate is plotted, assay performed in a scientific duplicate for hit compounds.
# Fluorescence Anisotropy – 14-3-3 titrations in the presence of compound To characterize the affinity of the Tau peptides for 14-3-3 in the presence of compound, 14-3-3ζ or γ was titrated in a 2-fold dilution series starting at 400 (for the 14-3-3ζ titrations to Tau pS2) or 800 (for the 14-3-3γ titrations to Tau pS214 or pS324) µM. 14-3-3 was added to 10 nM of fluorescein-labeled peptide (Tau pS2, Tau pS214 or Tau pS324) in the presence of 250 µM compound (1% DMSO). The assays were performed in a similar way as described above. Data shown is the average and standard deviation of a technical duplicate, top plateau corrected where needed, assay performed in a scientific duplicate. […]
# The peptide screen was performed in a similar way as the 14-3-3ζ titration in the precence of compound.
# 14-3-3ζ was titrated in a 2-fold dilution series (starting at 400 µM 14-3-3ζ) to 100 nM of fluorescein-labeled peptides and 250 µM compound 18 (1% DMSO) in FA buffer (10 mM HEPES pH 7.4, 150 mM […]
# Data shown is the average of a scientific triplicate. […]
# DSF was performed using 40 µl samples containing 2.5 µM 14 -3-3ζ, 25 µM Tau peptide (Tau pS2, Tau pS214 or Tau pS324), […] (1% DMSO) and 5x ProteoOrange (Lumiprobe, 5000x stock in DMSO) in 10 mM HEPES, 150 mM NaCl, 50 µM TCEP (pH 7.4). The samples were heated from 35 °C to 79°C at a rate of 0.3 °C per 15 s in a C FX96 Touch Real-Time PCR Detection System (Bio -Rad). Fluorescence […]
row,Structure (SMILES),phospho-binding site preference Tau pS214 versus Tau pS324 (in words)
1,CCc1ccc(-c2nccn2-c2ccc(C=O)c(Br)c2)cc1 [Compound 18],significantly greater extent; also recorded: highest stabilization selectivity for the 14-3-3γ/Tau pS214 complex
2,O=Cc1ccc(-n2ccnc2-c2ccc(I)cc2)cc1Br [Compound 15],significantly greater extent; also recorded: preference for Tau pS214
3,Cc1cccc(-c2nccn2-c2ccc(C=O)c(Br)c2)c1 [Compound 6],no significant preference
4,O=Cc1ccc(-n2ccnc2-c2ccc(Cl)cc2)cc1Br [Compound 14],significantly greater extent; also recorded: preference for Tau pS214
5,O=Cc1ccc(-n2ccnc2-c2ccc(F)cc2)cc1Br [Compound 13],no preference for Tau pS214
6,Cc1ccc(-c2nccn2-c2ccc(C=O)c(Br)c2)cc1 [Compound 11],significantly greater extent
7,O=Cc1ccc(-n2ccnc2-c2ccccc2)cc1Br [Compound 1],did not show a difference in stabilization
8,N#Cc1ccc(-c2nccn2-c2ccc(C=O)c(Br)c2)cc1 [Compound 22],preference for Tau pS214

# From article PMC11892739, “Site-specific molecular glues for the 14-3-3/Tau pS214 protein–protein interaction via reversible covalent imine tethering” (RSC Medicinal Chemistry, 2025)
